# Experimental data from US20070066682A1, “Arylalkylamine vanadium (V) salts for the treatment and/or prevention of Diabetes mellitus” (priority 2005, published 2007).
# “Also recorded” adds a separate entry of the source.
# Tests used:
# [1] = test system: mice made glucose intolerant by a high fat diet; experiment: Glucose tolerance and plasma insulin in high-fat fed mice, acute administration; type: in vivo, mouse; conditions: dihydrate
# Procedure: Male Wistar rats weighting 180-220 g were purchased from Harlan (Interfauna Ibèrica S.A., Spain). Diabetes was induced by a single intraperitoneal injection of a freshly prepared solution of streptozotocin (in some studies the dose was 45 mg/kg body weight and in some others 100 mg/kg body weight dissolved in 50 mM citrate buffer, pH 4.5). Only diabetic animals with glycemia above 300 mg/dl were used. The animals were housed in animal quarters at 22° C., with a 12 h light/12 h dark cycle and were fed ad libitum. All procedures used were approved by the animal ethical committee of the University of Barcelona, Spain. […]
# (§1) In glucose tolerance tests and in chronic treatments, circulating glucose concentrations were determined by a rapid glucose analyser (Accutrend® Sensor Comfort, Roche, Basel. Switzerland). Plasma insulin (IRI) concentration was determined by ELISA method using a kit obtained from Crystal Chem Inc. (Downers Grove, Ill.). Plasma triglycerides (Biosystems, Barcelona, Spain) and NEFAS (Wako Chemicals, Neuss, Germany) were determined with standard […] methods.
# Insulin and glucose responses during the glucose tolerance test were calculated as the incremental plasma values integrated over a period of 120 min after injection of glucose. […] Data distribution was analyzed by the Kolmogorov-Smirnov test. […]
# [2] = test system: streptozotocin-induced diabetic rat with undetectable circulating insulin; experiment: Subcutaneous treatment of streptozotocin (100 mg/kg) diabetic rats with undetectable circulating insulin; type: in vivo
# Procedure: (§2) Male Wistar rats weighting 180-220 g were purchased from Harlan (Interfauna Ibèrica S.A., Spain). Diabetes was induced by a single intraperitoneal injection of a freshly prepared solution of streptozotocin (in some studies the dose was 45 mg/kg body weight and in some others 100 mg/kg body weight dissolved in 50 mM citrate buffer, pH 4.5). Only diabetic animals with glycemia above 300 mg/dl were used. The animals were housed in animal quarters at 22° C., with a 12 h light/12 h dark cycle and were fed ad libitum. All procedures used were approved by the animal ethical committee of the University of Barcelona, Spain. Male mice C57 BL/Ks bearing the db/db mutation (Jackson Laboratories, Bar Harbor, Me.) were purchased from Harlan France (Gannat, France). C57BL/6J male mice were assigned for 16 weeks to very high-fat diet containing (in kcal): 72% from fat, 28% from proteins and <1% from carbohydrates (Burcelin et al., 2002, Am. J. Physiol. Endocrinol. Metab 282: E834-E842).
# as §1
# To this end, rats were made diabetic by the injection of a large dose of streptozotocin (100 mg/kg) that eliminates β-pancreatic insulin content. […] These streptozotocin-induced diabetic rats were subcutaneously treated with B6V10 (2.5 μmol/kg) (solid squares, FIG. 9A) delivered by osmotic minipumps or left untreated (solid circles, FIG. 9A). Sham-operated nondiabetic rats were also untreated (solid triangles, FIG. 9A).
# The concentration of circulating glucose under these conditions was also assayed. After 28 days of treating diabetic rats with hexaquis(benzylammonium) decavanadate (2.5 μmol/kg) (wide striped bars, FIG. 9B), or with decavanadate (close striped bars, FIG. 9B) delivered by osmotic minipumps, plasma insulin and glucose were measured. Untreated diabetic (solid bars, FIG. 9B) or nondiabetic rats (open bars, FIG. 9B) were similarly assayed as controls.
# [3] = test system: db/db mice; experiment: Chronic treatment of obese diabetic db/db mice, glycemia; type: in vivo, mouse
# Procedure: as §2
# [4] = Tolerability in treated animals; type: in vivo
# [5] = test system: streptozotocin-induced diabetic rats; experiment: Chronic oral treatment of streptozotocin (45 mg/kg) diabetic rats, glycemia; type: in vivo, rat
# Procedure: as §2
# Osmotic minipumps delivering B6V10 (2.5 μmol/kg body wt/day) or decavanadate (2.5 μmol/kg body wt/day) were implanted subcutaneously in diabetic rats anaesthetised by ketamine hydrochloride (95 mg/kg) and xylasine (10 mg/kg). […] Glycemia was measured on arterio-venous blood collected from the tail vessels at 09:00 am for two weeks, before the administration of vanadate. Insulin concentrations were determined before and after treatment. In another set of experiments, B6V10 was orally administered at a single dose of 5 μmol/kg/day during the first week and 10 μmol/kg/day during 2 additional weeks by gastric gavage. A control group received the corresponding decavanadate salt in the absence of benzylamine. At the end of the treatment, animals were sacrificed and the liver, fat pad, heart and lung were kept at −80° C. and the plasma at −20° C. until their use for in vitro analysis.
# as §1
# The effect of the oral administration of hexaquis(benzylammonium) decavanadate on glycemia from diabetic rats was also studied. Diabetes was induced in rats by intravenous administration of streptozotocin, and subsequently, a hexaquis(benzylammonium) decavanadate or sodium decavanadate unique dose was administered to the rats. […] After seven days of treatment, the dose was increased at 10 μmol/kg/day which was maintained for an additional ten days. […] Thus, glycemia in sodium decavanadate treated rats was approximately 450 mg/dl and glycemia of hexaquis(benzylammonium) decavanadate treated rats was approximately 250 mg/dl.
# Chronic in vivo efficacy of B6V10 was evaluated in streptozotocin-induced diabetic rats and in db/db mice. Streptozotocin-induced (45 mg/kg) diabetic rats were subcutaneously treated with hexaquis(benzylammonium) decavanadate (2.5 μmol/kg) (B6V10, solid squares, FIG. 8A) or with decavanadate (2.5 μmol/kg) (V10, open circles, FIG. 8A) delivered subcutaneously by osmotic minipumps implanted in the dorsal region. Diabetic rats were also sham-operated (untreated, solid diamonds, FIG. 8A). […] These experiments were repeated using an oral administration protocol. Streptozotocin-induced (45 mg/kg) diabetic rats were orally treated with hexaquis(benzylammonium) decavanadate (5 μmol/kg from day 0 to day 7 and 10 μmol/kg/day from day 7 to day 17) (B6V10, solid squares, FIG. 8B) or received decavanadate (10 μmol/kg) (V10, open circles, FIG. 8B). Nondiabetic rats were also untreated (solid triangles, FIG. 8B).
substance,measurement,setting,value
hexaquis(benzylammonium) decavanadate (V) dihydrate [Entry B6V10],glucose tolerance and plasma insulin levels,[1],ameliorated the pattern of plasma insulin levels; also recorded: amelioration of glucose tolerance and improved plasma insulin levels
same,glycemia in diabetic rats with undetectable insulin,"[2]; 2.5 μmol/kg subcutaneous minipumps, STZ 100 mg/kg, dihydrate",markedly effective in lowering hyperglycemia; also recorded: reducing glycemia; also recorded: significant differences between the B6V10 and the untreated groups; also recorded: antidiabetic effects
same,plasma glucose and insulin after 28 days of treatment,"[2]; 2.5 μmol/kg, osmotic minipumps, STZ 100 mg/kg",plasma glucose was reduced even without any observable change in the amount of insulin
same,body weight or organ weights,[2]; chronic treatment with therapeutic doses,did not affect body weight or organ weights
same,glycemia,[3],ameliorated glycemia
same,toxicological side effects,[4]; at the doses used,did not show toxicological side effects
same,hypoglycemia,[4]; treated animals,did not cause hypoglycemia
same,"glycemia, oral 5 μmol/kg/day",[5]; 5 μmol/kg/day for seven days,moderate decrease of hyperglycemia that was detected after but two days of treatment
same,"glycemia, oral dose increased to 10 μmol/kg/day",[5]; 10 μmol/kg/day for an additional ten days,additional decrease in glycemia
same,glycemia during chronic oral treatment,"[5]; daily oral, 17 days (5 then 10 μmol/kg/day), STZ 45 mg/kg rats, dihydrate",ameliorated hyperglycemia; also recorded: significant correction of hyperglycemia
same,glycemia,"[5]; oral treatment, after dose increase to 10 μmol/kg/day",approximately 250 mg/dl
